From patent publication US20100197601A1, “USE OF A FIBRINOGEN RECEPTOR ANTAGONIST AND/OR FOLLICULAR GONADOTROPIN RELEASING PEPTIDE AS A THERAPEUTIC AGENT IN THE TREATMENT OF STREPTOCOCCUS PNEUMONIA INFECTION” (priority 2007, published 2010)
Primed or numbered codes have the meaning given here. Where no end group is shown, it is not given here. [ ]: non-standard residue; d: D form. Pen′ = not defined here

What was measured:
HIV-1IIIB = test: HIV-1 antiviral assay in CEM-SS cells
HCMV strain AD169 = test: HCMV plaque formation assay in MRC-5 cells; format: cell-based; details: for inhibition of HCMV plaque formation as compared to the virus control experiment: 10 micrograms per ml, 7-10 days
[1] = tested on: hepatitis B virus (HBV) ayw strain; test: HBV experimental assay system, HepG2-2.2.15; format: cell-based; details: 10 micrograms per ml, six days, HBV DNA by TaqMan PCR, combination 0.95 mole peptide 1 and 1.05 mole peptide 2
HUVEC = test: Endothelial tube formation assay; format: cell-based, human; details: 10 micrograms per ml, 20 hours
Description: The endothelial tube formation assay is based on the ability of endothelial cells to form three-dimensional capillary-like tubular structures when cultured on a gel of basement membrane extract. The endothelial tube formation assay represents a powerful model for studying inhibition and induction of angiogenesis. Pre-labeled HUVEC with Calcein AM were seeded in a 96-well culture plate coated with extracellular metrix (Chemicon international Cat. ECM625) and treated with test peptides—10 micrograms per ml—in full growth medium. Positive control wes vehicle only. The endothelial cells were allowed to form tubes foe 20 hours and were then examined under an inverted fluorescent microscope. Duplicate wells for each treatment were photographed and quantitatively analyzed for an average tubule length using image analysis software ImageProPlus. Raw data were expressed as average tubule lengths in pixels±standard deviation. Statistic p values were computed using the Student's t-test.

Streptococcus pneumoniae = Streptococcus pneumoniae assay; format: cell-based; details: 10 micrograms per ml; 5x10^5 CFU/mL; read visually; combination for instance 0.95 mole peptide 1 and 1.05 mole peptide 2
[2] = tested on: Primary Human endothelial cells (HUVEC); test: Endothelial cell migration assay; format: cell-based; details: 10 micrograms per ml, 22 hours, combination peptide 1:peptide 2 1.10 mole:0.90 mole
[3] = tested on: murine spleen cells restimulated with Ovalbumin; test: Th1/Th2 cytokine profiling assay; format: cell-based, Balb/c mice; details: 10 micrograms per ml
[4] = combination 0.95 mole peptide 1 and 1.05 mole peptide 2

| Molecule | antiviral activity of positive control compounds (HIV-1) (HIV-1IIIB) | inhibition of HCMV plaque formation as compared to the virus control experiment (HCMV strain AD169) | inhibition of the growth of Streptococcus pneumoniae (Streptococcus pneumoniae) [%] | inhibition of the migration of human endothelial cells [2] [%] | production of TNF-alpha, induced by ([3]; 72 hours) [%] | change of the production of IL-2 [3, 4] | also measured |
| --- | --- | --- | --- | --- | --- | --- | --- |
| Cc1cn([C@H]2C[C@H](N=[N+]=[N-])[C@@H](CO)O2)c(=O)[nH]c1=O [AZT] | expected levels of antiviral activity |  |  |  |  |  |  |
| Nc1nc(O)c2ncn(COC(CO)CO)c2n1 [Ganciclovir, reference compound] |  |  |  |  |  |  | antiviral activity of positive control compound (HCMV) (HCMV strain AD169; positive control): expected levels of antiviral activity |
| CC(C)(C)NC(=O)[C@@H]1CN(Cc2cccnc2)CCN1C[C@@H](O)C[C@@H](Cc1ccccc1)C(=O)N[C@H]1c2ccccc2C[C@H]1O [indinavir] | expected levels of antiviral activity |  |  |  |  |  |  |
| Ac-Pen-Arg-Gly-Asp-Cys-OH (Ac-[Pen′]RGDC-OH; reading uncertain; also: printed as Ac-Pen-Arg-Gly-Asp-Cys-OH) [Peptide 1] |  | did not inhibit | 100 | 4 | 30.0 | did not significantly change | inhibition of HBV replication as compared to the virus control infection [1]: no effect; inhibition of the tube formation of human endothelial cells (HUVEC; combination peptide 1:peptide 2 1.10 mole:0.90 mole): 26%; production of IL-4, decreased by ([3]; 72 hours): 44%; production of IL-5, decreased by ([3]; 72 hours): 26.5%; change of the production of IFN-y [3, 4]: did not significantly change |
| Thr-Asp-Thr-Ser-His-His-Asp-Gln-Asp-His-Pro-Thr-Phe-Asn-OH (TDTSHHDQDHPTFN-OH) [Peptide 2] |  | did not inhibit | 100 | 8 | 34 | did not significantly change | increase of the tube formation of endothelial cells (HUVEC): 11%; production of IFN-y, induced by ([3]; 72 hours): 23.4%; production of IL-4, induced by ([3]; 72 hours): 29%; change of the production of IL-5 [3, 4]: did not significantly change |
